Reference: patent EP1081232A1, “Novel target for antifungals” (K.U. LEUVEN RESEARCH & DEVELOPMENT, priority 1999, dated 2001)

System: tps2Δ strains
Assay: Sensitivity towards antifungals, growth curves in liquid medium in microtiter wells (bioscreen C)
Assay type: cell-based, Saccharomyces cerevisiae
Conditions: 10^-6 M ketoconazole, 33°C, cells pre-grown to stationary phase, OD 600 nm, after 24 hours
Procedure: Sensitivity towards the antifungals itraconazole and ketoconazole was tested in microtiter wells using a bioscreen C apparatus (Life sciences, Labsystems) and on solid culture media.
Yeast cells were pre-grown in YPglucose medium till stationary phase. The cells were diluted to a initial optical density of 0.05 OD and 300 µl of cell suspension was added to each well of a microtiter plate. Three µl of the correct stock solution of the compound, dissolved in DMSO, were added to each well. For the control reactions, only DMSO was added. The microtiter plate was placed in the bioscreen C apparatus and were incubated at 33°C or 37°C, with medium intensity shaking (30 seconds shaking per minute). The optical density at 600 nm was measured every 30 min.
The effect of the addition of 10^-7 M Itraconazole and 10^-6 Ketoconazole on the growth curve of prototrophic tps2Δ strain PVD32 and wild type strain PVD23 at 33°C is shown in Figures 3 and 4 respectively.
The effect of different concentrations of itraconazole on the growth at 33°C of the diploid wild type strain (PVD190) and the diploid heterozygous tps2Δ strain PVD191 was tested and the results are presented in Figure 5.

**Q.** Which effect on growth does the source give for `CC(=O)N1CCN(c2ccc(OCC3COC(Cn4ccnc4)(c4ccc(Cl)cc4Cl)O3)cc2)CC1` (stereo not shown) [ketoconazole] here?
**A.** The effect on growth was “no detectable growth”.
